Test results reported in patent publication US20110200545A1, “DEODORANT COMPOSITION AND METHODS FOR USE THEREOF” (priority 2010, published 2011).

Columns and labels:
skin = assay: application to skin, detrimental skin effects; type: in vivo
Description: The low pKa results in an acidic solution having a pH of about 1.9, which damages skin and results in skin peeling in the hours and/or days following application to skin.
The pH of skin is about 5.5. When the pH of the skin surface is less than about 3.8, skin peeling results. Additionally, side effects of skin adjusted to a pH of less than about 3.8 include: skin inflammation, dermatitis, itching, and/or sensitizing of the skin.

[1] = pH of acidic solution of the substance by itself; type: physicochemical; conditions: used by itself, unbuffered

effect on skin (skin; used by itself, hours and/or days following application to skin): acts as a skin peeler | pH of acidic solution [1]: about 1.9
SMILES: CC(=O)Oc1ccccc1C(=O)O [acetylsalicyclic acid]
detrimental effects on skin (skin; in a composition having a pH of about 3.8 or less): an acid burn of the skin, inflammation, itching, sensitizing, dermatitis, and/or skin peeling
